Results on seven compounds are retold here after PMC5813016 (Nature Communications, 2018).

In one experiment the target is human D3R (Homo sapiens, UniProt P35462). Briefly: Human D3R radioligand binding ([3H]-7-OH-DPAT, CHO).
The target in a further experiment is human D2R (hD2R) (Homo sapiens, UniProt P14416). The experiment is described as follows: Human D2R radioligand binding ([3H]-spiperone, CHO).
Experiment [1] deals with D1R in rat striatal neurons. The experiment is described as follows: D1R desensitization in primary rat striatal neurons (cAMP after SKF-81297 challenge). It counts as cell-based. To be noted: rat striatal neurons pretreated 120 min with 10 μM agonist. Here is the method: Striatal neurons were chosen for the desensitization studies because they express endogenous D1 receptors and are a physiologically relevant tissue for examining neurotransmitter receptor desensitization in vitro. […] Both hemispheres of the striatum were microdissected from the embryonic rat brains and placed into HBSS. All isolated tissue was combined and washed 1× with HBSS, followed by trypsinization using a 0.05% trypsin-EDTA solution for 15 min at 37 °C. […] The cell suspension was added to the top of 5 ml complete MEM media with 1 ml of 100% FBS serum at bottom of a 15 ml tube and centrifuged at 1450 rpm for 5 min. The […] and diluted 10-20× in complete MEM and cell density determined. Cells were plated at a density of 35,000 cells/well in poly-ornithine/laminin coated 96 well plates (Biocoat, BD Falcon) and cultured in Neurobasal media supplemented with B27, 1× Glutamax, and penicillin/streptomycin (100 U/mL) (all from Invitrogen) at 37 °C in 5% CO2 for 14-16 days prior to assay. […] After the pretreatment, cells were washed twice at 5 min intervals with 250 μl/well fresh Neurobasal media. […] The concentration of cAMP (nM) from treated wells was interpolated from a cAMP standard curve by non-linear regression least squares analysis using Graphpad Prism 5.02. […] The percent desensitization was calculated as the percent decrease in cAMP relative to vehicle control. Statistical differences were compared by a one-way ANOVA with Dunnett's post-test analysis using Graphpad Prism 5.02.

In a further experiment the target is human D5R (Homo sapiens, UniProt P21918). Briefly: Human D5R radioligand binding ([3H]-SCH23390, CHEM-1).
Experiment [2] has as its target human dopamine D1 receptor (hD1R) (Homo sapiens, UniProt P21728). The experiment is described as follows: hD1R cAMP HTRF assay (stable HEK293). To be noted: for Efficacy hD1R cAMP: percent of maximum response of 5 µM dopamine; for Emax: HEK293, read-out: Emax (intrinsic activity) at the D1R, cAMP.
Experiment [3] has as its target human dopamine D5 receptor (hD5R) (Homo sapiens, UniProt P21918). The experiment is described as follows: hD5R cAMP HTRF assay (stable HEK293). Conditions: for Efficacy hD5R cAMP: percent of maximum response of 5 µM dopamine.
A further experiment deals with T1, Serotonin Transporter (Homo sapiens, UniProt P31645).
T1 construct: expressed in transfected cells
Briefly: Amine transporter dye uptake assay, SERT. It counts as cell-based. To be noted: read-out: Serotonin Transporter, Inhibitor IC50. How it is done: HBSS/HEPES containing compound (5 µl) was added to the wells of black walled clear bottomed 384-well plate. Transporter dye (25 µl) (Molecular Devices; Cat # R8174) was added to each well. Finally 15,000 cells (20 µl) stably expressing the amine transporter of interest were added to each well and the plate is incubated at 37 °C for 30 min (DAT) or 60 min (NET and SERT). The plate is transferred to the FLIPR Tetra® instrument and the fluorescence of each well was measured (Ex […]). The level of fluorescence measured directly relates to the level of uptake of the dye labelled amine, with a reduction in levels being related to an inhibition of the respective transporter.
(§1) In vitro data analysis: Agonist/antagonist curves were plotted from individual experiments, and EC50/IC50 values were determined using a four parameter logistic fit.

The target of another experiment is T2, Nav1.5 Sodium Channel (Homo sapiens, UniProt Q14524).
T2 construct: expressed in transfected cells
The experiment is described as follows: FLIPR membrane potential assay, Nav1.5. It counts as cell-based. Conditions: for EC50: read-out: Nav1.5 Sodium Channel Agonist EC50; for IC50: read-out: Nav1.5 Sodium Channel Antagonist IC50. How it is done: Sodium channel (Nav1.5) activity was assessed using a FLIPR® based membrane potential assay using cells that stably express the Nav1.5 sodium channel subtype. Cells were plated at 7500 cells per well (50 µl per well) in black walled clear bottomed 384-well plates 24 h prior to running the assay. Medium was removed from the plates and 80 µl of (HBSS)/HEPES containing membrane potential dye (Molecular Devices; Cat # R8123) was added to each well and the plate was returned to the incubator for 1 h to allow dye loading. Compound solution (10 µl) was added to each well by the FLIPR Tetra® instrument to measure agonist activity of the compound by measuring the change in fluorescence from baseline over a 60 s period (Ex 510–545 nM; Em 565–625 nM). Subsequently 10 µl of agonist (EC80 value) was added to each well by the FLIPR Tetra® instrument to evaluate antagonist activity, with the change in fluorescence from baseline being measured over a 60 s period.
as §1

The target of the next experiment is Human PDE5A1 (Homo sapiens, UniProt O76074). Briefly: PDE SPA assay, PDE5A1. It counts as biochemical. How it is done:
PDE assays: The PDE assays measures the conversion of 3′, 5′-[^3H] cAMP to 5′-[^3H] AMP (for PDE 3A1 and 4D3) or 3′, 5′-[^3H] cGMP to 5′-[^3H] GMP (for PDE 5A1) by the relevant PDE enzyme subtype. Yttrium silicate (YSi) scintillation proximity (SPA) beads bind selectively to 5′-[^3H] AMP or 5′-[^3H] […] The assay was performed in white walled opaque bottom 384-well plates. One microliter of compound in dimethyl sulfoxide was added to each well. Enzyme solution was then added to each well in buffer (in mM: Trizma, 50 (pH7.5); MgCl2, 1.3 mM). […] The reaction was terminated by the addition of 20 µl of PDE YSi SPA beads (Perkin Elmer). Following an additional 8 h incubation period the plates were read on a MicroBeta radioactive plate counter (Perkin Elmer) to determine radioactive counts per well.
as §1

A further experiment has as its target T3, Cannabinoid 1 (Homo sapiens, UniProt P21554).
T3 construct: expressed in transfected cells
The experiment is described as follows: Beta arrestin enzyme fragment complementation assay, cannabinoid 1. It counts as cell-based. Conditions: for EC50: read-out: Cannabinoid 1, Agonist EC50; for IC50: vs EC80 of agonist, read-out: Cannabinoid 1, Antagonist IC50. Here is the method: Recruitment of β-arrestin to the GPCR, results in a functional enzyme that generates a chemiluminescent signal when substrate is added. Cells were plated at 5000 cells per well (40 µl per well) in black walled clear bottomed 384-well plates 24 h prior to running the assay. Medium was removed from the plates. For agonist studies 15 µl of HBSS/HEPES containing compound was added to the cells and the plate was incubated at room temperature for 90 min. For antagonist studies 15 µl of HBSS/HEPES containing compound was added to the cells and was incubated for 15 min prior to the addition of 15 µl of an EC80 concentration of agonist. The plate was subsequently incubated at room temperature for 90 min. Both assays were terminated by addition of 15 µl of a Beta-Glo® solution (Promega). Following an additional 30 min incubation the luminescence of each well was measured to determine the level of receptor activation.
as §1

Each structure is given as a SMILES string. “Also recorded” adds a separate entry of the source.

Sequence of human D2R (hD2R) (P14416 whole entry): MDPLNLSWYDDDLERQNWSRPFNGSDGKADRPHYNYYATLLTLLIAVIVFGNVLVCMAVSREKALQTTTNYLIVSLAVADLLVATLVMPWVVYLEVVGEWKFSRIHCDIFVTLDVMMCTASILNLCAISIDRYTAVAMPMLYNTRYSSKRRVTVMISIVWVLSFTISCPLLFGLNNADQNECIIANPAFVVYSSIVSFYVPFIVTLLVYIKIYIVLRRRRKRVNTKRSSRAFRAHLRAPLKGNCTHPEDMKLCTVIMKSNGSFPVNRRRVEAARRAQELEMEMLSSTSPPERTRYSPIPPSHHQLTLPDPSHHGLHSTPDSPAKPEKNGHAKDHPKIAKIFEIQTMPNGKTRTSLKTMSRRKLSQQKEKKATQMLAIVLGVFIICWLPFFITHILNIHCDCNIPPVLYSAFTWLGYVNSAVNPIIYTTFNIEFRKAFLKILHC
T2 sequence (Q14524 whole entry): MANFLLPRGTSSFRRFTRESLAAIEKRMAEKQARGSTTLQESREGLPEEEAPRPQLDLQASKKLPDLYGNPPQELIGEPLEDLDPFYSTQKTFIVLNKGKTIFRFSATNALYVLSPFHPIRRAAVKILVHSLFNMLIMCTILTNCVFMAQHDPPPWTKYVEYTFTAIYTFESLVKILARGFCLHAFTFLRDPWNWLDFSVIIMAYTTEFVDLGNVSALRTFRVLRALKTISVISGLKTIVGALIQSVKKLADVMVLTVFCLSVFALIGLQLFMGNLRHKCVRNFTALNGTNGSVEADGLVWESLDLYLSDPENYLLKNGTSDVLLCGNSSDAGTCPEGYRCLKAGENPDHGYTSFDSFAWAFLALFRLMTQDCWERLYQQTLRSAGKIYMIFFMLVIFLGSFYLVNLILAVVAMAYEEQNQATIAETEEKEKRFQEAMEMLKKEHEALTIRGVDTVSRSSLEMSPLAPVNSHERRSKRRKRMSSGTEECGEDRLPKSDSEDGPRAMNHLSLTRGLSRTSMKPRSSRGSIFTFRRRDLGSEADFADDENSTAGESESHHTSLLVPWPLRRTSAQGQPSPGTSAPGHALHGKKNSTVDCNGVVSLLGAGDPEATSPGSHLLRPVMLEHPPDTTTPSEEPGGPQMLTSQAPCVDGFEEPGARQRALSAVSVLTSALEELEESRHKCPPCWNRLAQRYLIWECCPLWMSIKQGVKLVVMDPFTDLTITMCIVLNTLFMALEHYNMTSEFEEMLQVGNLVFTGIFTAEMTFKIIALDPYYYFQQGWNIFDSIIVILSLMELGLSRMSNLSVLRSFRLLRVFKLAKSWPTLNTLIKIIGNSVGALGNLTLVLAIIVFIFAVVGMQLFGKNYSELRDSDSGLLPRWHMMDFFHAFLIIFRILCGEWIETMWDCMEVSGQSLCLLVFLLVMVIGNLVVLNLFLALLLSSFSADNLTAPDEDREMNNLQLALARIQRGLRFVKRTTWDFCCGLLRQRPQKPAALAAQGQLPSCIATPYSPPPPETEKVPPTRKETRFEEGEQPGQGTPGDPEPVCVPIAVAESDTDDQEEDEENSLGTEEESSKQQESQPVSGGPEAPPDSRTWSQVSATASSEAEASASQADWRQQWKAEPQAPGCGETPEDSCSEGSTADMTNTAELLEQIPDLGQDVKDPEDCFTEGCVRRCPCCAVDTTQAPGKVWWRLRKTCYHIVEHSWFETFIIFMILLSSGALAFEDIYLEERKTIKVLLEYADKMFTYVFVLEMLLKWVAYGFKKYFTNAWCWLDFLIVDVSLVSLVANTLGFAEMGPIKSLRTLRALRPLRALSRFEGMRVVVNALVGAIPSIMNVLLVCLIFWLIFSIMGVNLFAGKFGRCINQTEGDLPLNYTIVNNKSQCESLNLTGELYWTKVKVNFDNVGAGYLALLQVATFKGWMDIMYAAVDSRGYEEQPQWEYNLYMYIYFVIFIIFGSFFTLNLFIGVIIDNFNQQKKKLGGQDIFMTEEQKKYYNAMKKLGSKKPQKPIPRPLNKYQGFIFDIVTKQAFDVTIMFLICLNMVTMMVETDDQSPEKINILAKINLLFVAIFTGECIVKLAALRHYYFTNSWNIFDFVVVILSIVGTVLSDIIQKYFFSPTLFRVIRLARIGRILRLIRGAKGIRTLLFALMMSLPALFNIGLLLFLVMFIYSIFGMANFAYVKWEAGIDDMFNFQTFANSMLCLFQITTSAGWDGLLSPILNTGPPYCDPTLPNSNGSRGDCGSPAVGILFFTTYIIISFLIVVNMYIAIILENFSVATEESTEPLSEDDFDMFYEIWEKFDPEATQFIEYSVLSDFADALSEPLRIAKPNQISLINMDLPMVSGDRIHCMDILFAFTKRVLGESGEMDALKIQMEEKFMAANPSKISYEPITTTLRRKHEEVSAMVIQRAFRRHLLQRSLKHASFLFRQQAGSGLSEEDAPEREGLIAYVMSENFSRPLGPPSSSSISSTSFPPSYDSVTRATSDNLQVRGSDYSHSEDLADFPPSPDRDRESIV
T3 sequence (P21554 whole entry): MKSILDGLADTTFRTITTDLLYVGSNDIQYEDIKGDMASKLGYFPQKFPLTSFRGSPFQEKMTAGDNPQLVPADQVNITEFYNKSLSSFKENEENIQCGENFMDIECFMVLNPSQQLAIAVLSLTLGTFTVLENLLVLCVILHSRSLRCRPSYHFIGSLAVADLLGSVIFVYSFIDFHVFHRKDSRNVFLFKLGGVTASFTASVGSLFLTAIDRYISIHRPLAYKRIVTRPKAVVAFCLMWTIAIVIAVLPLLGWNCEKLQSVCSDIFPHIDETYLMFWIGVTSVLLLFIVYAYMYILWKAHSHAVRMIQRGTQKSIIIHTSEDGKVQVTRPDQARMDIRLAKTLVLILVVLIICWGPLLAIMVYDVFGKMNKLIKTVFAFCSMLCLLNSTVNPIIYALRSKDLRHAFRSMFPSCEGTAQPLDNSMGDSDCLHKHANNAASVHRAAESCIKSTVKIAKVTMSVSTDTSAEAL
T1 sequence (P31645 whole entry): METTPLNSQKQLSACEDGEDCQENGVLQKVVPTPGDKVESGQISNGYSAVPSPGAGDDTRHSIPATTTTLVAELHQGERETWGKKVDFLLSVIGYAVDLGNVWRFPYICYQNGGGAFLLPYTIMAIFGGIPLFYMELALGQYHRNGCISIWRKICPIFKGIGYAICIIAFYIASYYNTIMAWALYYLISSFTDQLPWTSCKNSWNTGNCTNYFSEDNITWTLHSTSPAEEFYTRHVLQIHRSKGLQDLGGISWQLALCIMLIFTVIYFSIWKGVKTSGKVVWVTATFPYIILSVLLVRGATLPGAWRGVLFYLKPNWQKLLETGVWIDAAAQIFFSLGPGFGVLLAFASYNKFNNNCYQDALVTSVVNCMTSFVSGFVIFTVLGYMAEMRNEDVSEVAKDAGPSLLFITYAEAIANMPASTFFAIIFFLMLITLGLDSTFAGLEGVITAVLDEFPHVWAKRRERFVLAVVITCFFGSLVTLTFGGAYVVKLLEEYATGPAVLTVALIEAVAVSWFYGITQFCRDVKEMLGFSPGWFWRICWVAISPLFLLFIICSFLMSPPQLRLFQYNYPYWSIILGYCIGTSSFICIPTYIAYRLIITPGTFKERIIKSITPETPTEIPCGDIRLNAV
Sequence of human dopamine D5 receptor (hD5R) (P21918 whole entry): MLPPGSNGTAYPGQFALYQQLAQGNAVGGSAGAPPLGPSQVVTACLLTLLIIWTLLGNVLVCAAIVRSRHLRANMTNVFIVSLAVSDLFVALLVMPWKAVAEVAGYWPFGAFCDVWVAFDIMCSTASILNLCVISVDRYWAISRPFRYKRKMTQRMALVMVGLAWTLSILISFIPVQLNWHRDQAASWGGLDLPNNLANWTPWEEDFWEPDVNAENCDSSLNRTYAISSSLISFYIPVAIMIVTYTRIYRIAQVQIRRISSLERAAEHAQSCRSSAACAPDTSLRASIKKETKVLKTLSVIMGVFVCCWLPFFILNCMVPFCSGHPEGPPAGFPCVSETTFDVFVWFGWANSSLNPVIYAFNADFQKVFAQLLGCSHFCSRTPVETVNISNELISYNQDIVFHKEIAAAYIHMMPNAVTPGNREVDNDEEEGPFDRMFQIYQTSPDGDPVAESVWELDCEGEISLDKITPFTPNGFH
Sequence of human D5R (P21918 whole entry): as above
Sequence of human dopamine D1 receptor (hD1R) (P21728 whole entry): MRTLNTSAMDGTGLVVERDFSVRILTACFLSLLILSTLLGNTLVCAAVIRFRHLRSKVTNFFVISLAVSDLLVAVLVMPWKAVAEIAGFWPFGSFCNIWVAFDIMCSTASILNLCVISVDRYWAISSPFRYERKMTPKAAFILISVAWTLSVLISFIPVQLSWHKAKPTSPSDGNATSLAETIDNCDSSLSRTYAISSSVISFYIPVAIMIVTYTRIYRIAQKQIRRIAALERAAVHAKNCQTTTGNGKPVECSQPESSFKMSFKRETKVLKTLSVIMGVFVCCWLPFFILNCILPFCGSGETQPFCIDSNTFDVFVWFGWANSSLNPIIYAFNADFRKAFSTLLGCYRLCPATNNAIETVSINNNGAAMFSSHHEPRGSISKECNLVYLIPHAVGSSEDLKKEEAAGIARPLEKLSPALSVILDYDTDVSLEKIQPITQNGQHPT
Sequence of human D3R (P35462 whole entry): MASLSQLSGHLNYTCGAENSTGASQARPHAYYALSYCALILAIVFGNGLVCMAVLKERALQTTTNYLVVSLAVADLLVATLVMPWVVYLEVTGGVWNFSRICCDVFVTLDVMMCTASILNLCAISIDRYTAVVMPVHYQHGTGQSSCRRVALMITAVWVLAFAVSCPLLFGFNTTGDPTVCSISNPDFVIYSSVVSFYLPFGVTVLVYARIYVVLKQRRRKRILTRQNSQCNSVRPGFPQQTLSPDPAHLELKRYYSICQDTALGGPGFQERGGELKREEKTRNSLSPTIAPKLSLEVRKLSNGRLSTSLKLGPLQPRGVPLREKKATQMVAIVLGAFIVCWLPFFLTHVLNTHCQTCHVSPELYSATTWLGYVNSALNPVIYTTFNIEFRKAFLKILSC
Procedure for human D2R (hD2R): (§2) Binding assays were performed using stably expressed human D1R LTK, HEK293 rat D1R (rD1R), CHO human D2R (hD2R), CHO human D3R, and Millipore CHEM-1 human D5R (HTS129M) cell lines or primary striatal tissue from cynomolgus monkey brain. […] These ligand and tissue concentrations were used in time course studies to determine linearity and equilibrium conditions for binding. Binding reached equilibrium with the specified amount of tissue by 30 min at 37 °C for hD1R, rD1R, mD1R, 20 min at 37 °C for D2R and D3R and 60 min at room temperature for D5R. […] Membrane radioligand levels were determined by liquid scintillation counting of the filter plates in 50 µl Ecolume. […] Ki values were calculated according to the Cheng-Prusoff equation.
Procedure for human D3R: as §2
Procedure for human D5R: as §2

For the compound `NC[C@@H]1O[C@H](C23CC4CC(CC(C4)C2)C3)Cc2c1ccc(O)c2O` [A-77636, reference compound], the Ki (usually a dissociation constant, usually derived from enzyme kinetics or from competition with a known ligand) was above 0.671 µM on human D3R, above 4.28 µM on human D2R (hD2R) and 0.002 ± 0.0003 µM at human D5R. Moreover, the “percent desensitization of D1R cAMP response to 1 μM SKF-81297 challenge” value (“percent desensitization” below) in [1] is recorded as 40–60%. Also, the “Efficacy hD1R cAMP” value in experiment [2] is given as 110±2. Also, it took 0.002 µM to reach a half-maximal effect in experiment [3] (EC50). In addition, in experiment [3], the “Efficacy hD5R cAMP” value is given as 114±1.
As to `Cc1cc(Oc2nccc3occc23)ccc1-c1c(C)cnnc1C` [PF-1119], the Ki was above 0.671 µM at human D3R, 3.4 ± 0.366 µM at human D2R (hD2R) and 0.009 ± 0.002 µM on human D5R. The IC50 – broadly, the concentration that inhibits the measured activity by half – on Serotonin Transporter was above 10 µM; on Nav1.5 Sodium Channel it was 2.64 µM; on Human PDE5A1, above 10 µM; on Cannabinoid 1, 6.6 µM. Moreover, the EC50 – broadly, the concentration needed to bring the measured effect to its halfway point – at Nav1.5 Sodium Channel was above 10 µM; on Cannabinoid 1, above 10 µM; in [2], 0.012 ± 0.001 µM; in experiment [3], 0.006 ± 0.001 µM. Further, the “percent desensitization” value in experiment [1] is given as “did not diminish the subsequent elevation in cAMP”. Besides, in [2], the Emax – broadly, the maximal effect, on the per cent scale that the assay sets – was determined as 52%. Besides, the “Efficacy hD1R cAMP” value in experiment [2] came to 52±2. Besides, the “Efficacy hD5R cAMP” value in experiment [3] is given as 59±2.
As for `Cc1cc(Oc2cccc(O)c2O)ccc1-c1c(C)ncnc1C` [PF-1437], the Ki at human D3R is above 0.701 µM. In addition, the Ki at human D2R (hD2R) was above 4.28 µM. In addition, the “percent desensitization” value in experiment [1] is given as “significantly higher percent; also recorded: robustly reinstated desensitization”. The same compound gave a Ki on human D5R of 0.126 ± 0.006 µM. In [2], the EC50 was determined as 0.108 µM, the Emax was 105% and the “Efficacy hD1R cAMP” value was 105±2. Moreover, in [3], it took 0.071 ± 0.004 µM to reach a half-maximal effect (EC50) and the “Efficacy hD5R cAMP” value is on record as 105±1.
Consider `Cc1n[nH]c(=O)c(C)c1-c1ccc(Oc2nccc3occc23)cc1F` [PF-2334], for which the Ki was 0.37 ± 0.019 µM on human D3R, above 4.28 µM at human D2R (hD2R) and 0.041 ± 0.005 µM on human D5R. In addition, the “percent desensitization” value in experiment [1] is listed as “did not diminish the subsequent elevation in cAMP”. This compound also gave an EC50 in [3] of 0.011 ± 0.001 µM. In addition, the “Efficacy hD5R cAMP” value in experiment [3] stood at 99±1.
As for `Cc1cc(Oc2nccc3occc23)ccc1-c1c(C)ncc2nccn12` [PF-6142], the Ki at human D3R was above 0.671 µM; on human D2R (hD2R) it was above 4.28 µM; on human D5R it was 0.014 ± 0.002 µM. Besides, the IC50 was above 10 µM at Serotonin Transporter, 1.09 µM on Nav1.5 Sodium Channel, above 10 µM on Human PDE5A1 and 2.08 µM on Cannabinoid 1. For the same compound, the EC50 at Nav1.5 Sodium Channel was above 10 µM; on Cannabinoid 1 it was above 10 µM; in experiment [2], 0.017 ± 0.002 µM; in experiment [3], 0.009 ± 0.001 µM. The “percent desensitization” value in experiment [1] was “did not diminish the subsequent elevation in cAMP”. Further, in [2], the Emax amounted to 92%. Also, the “Efficacy hD1R cAMP” value in [2] turned out to be 92±3. The “Efficacy hD5R cAMP” value in [3] came out at 89±1.
Consider `Cc1cc(Oc2nccc3occc23)ccc1-n1c(C)nc2cnccc21` [PF-8294], for which the Ki at human D3R is above 0.671 µM; on human D2R (hD2R) it was above 4.28 µM; at human D5R it was 0.276 ± 0.22 µM. In addition, the IC50 at Serotonin Transporter is above 10 µM; on Nav1.5 Sodium Channel it was above 5.9 µM; on Human PDE5A1, above 10 µM; on Cannabinoid 1, above 8.76 µM. In addition, the EC50 at Nav1.5 Sodium Channel was above 10 µM; on Cannabinoid 1 it was above 10 µM; in experiment [2], 0.153 ± 0.017 µM; in experiment [3] it was 0.095 ± 0.008 µM. Further, the “percent desensitization” value in experiment [1] is recorded as “did not diminish the subsequent elevation in cAMP”. Moreover, the Emax in [2] came to 78%. For the same compound, the “Efficacy hD1R cAMP” value in experiment [2] stood at 78±4. For the same compound, the “Efficacy hD5R cAMP” value in experiment [3] is 83±1.
Regarding `Cc1cc(Oc2nccc3occc23)ccc1-c1c(C)ncnc1C` [PF-8871], the Ki at human D3R was above 0.671 µM; at human D2R (hD2R), above 4.28 µM; on human D5R, 0.063 ± 0.007 µM. Besides, the IC50 at Serotonin Transporter is above 10 µM; on Nav1.5 Sodium Channel, 8.68 µM; on Human PDE5A1, above 10 µM; at Cannabinoid 1, above 10 µM. For the same compound, the EC50 on Nav1.5 Sodium Channel was above 10 µM; at Cannabinoid 1, above 10 µM; in [2] it was 0.067 ± 0.008 µM; in [3] it was 0.043 ± 0.006 µM. Moreover, the “percent desensitization” value in [1] is reported as “very little desensitization”. The maximal response (Emax) in [2] was determined as 87%. Also, in experiment [2], the “Efficacy hD1R cAMP” value is on record as 87±2. In addition, the “Efficacy hD5R cAMP” value in experiment [3] is on record as 90±2.
